Assay [1] has as its system Huh-7. In words: Cytotoxicity against human HuH7 cells assessed as growth inhibition after 72 hrs by SRB assay. It is filed as functional, cell-based.
Assay [2] has as its system Hep 3B2. Kind of assay: Cytotoxicity against human Hep3B cells assessed as growth inhibition after 72 hrs by SRB assay. It is filed as functional, cell-based. In general terms: Sulforhodamine B stains cellular protein and so reports cell mass.
Assay [3] concerns Mahlavu. Kind of assay: Cytotoxicity against human Mahlavu cells assessed as growth inhibition after 72 hrs by SRB assay. It is filed as functional, cell-based.
The subject of assay [4] is Huh-7. In words: Disruption of cancer stem cell subpopulation of human HuH7 cells assessed as effect on CD133 levels at IC100 after 72 hrs by flow cytometric method (reference value: 0 to 0.6%). It is filed as functional. A general note: In flow cytometry, cells or beads pass a laser one at a time.
For assay [5], the system named is Huh-7. In words: Disruption of cancer stem cell subpopulation of human HuH7 cells assessed as effect on EpCAM levels at IC100 after 72 hrs by flow cytometric method (reference value: 13.7 to 33%). It is filed as functional.
The subject of assay [6] is SNU-475. In words: Cytotoxicity against human SNU475 cells assessed as growth inhibition after 72 hrs by SRB assay. The assay is classed as functional, cell-based.
Assay [7] has as its system Huh-7. Kind of assay: Disruption of cancer stem cell subpopulation of human HuH7 cells assessed as aggressiveness factor at IC100 after 72 hrs by flow cytometric method. The assay is classed as functional.
In assay [8] the test system is Hep 3B2. In words: Disruption of cancer stem cell subpopulation of human Hep3B cells assessed as aggressiveness factor at IC100 after 72 hrs by flow cytometric method. The assay is classed as functional.
The subject of assay [9] is Mahlavu. In words: Disruption of cancer stem cell subpopulation of human Mahlavu cells assessed as aggressiveness factor at IC100 after 72 hrs by flow cytometric method. It is filed as functional.
Assay [10] concerns SNU-475. In words: Disruption of cancer stem cell subpopulation of human SNU475 cells assessed as aggressiveness factor at IC100 after 72 hrs by flow cytometric method. It is filed as functional.
The test system of assay [11] is Hep 3B2. In words: Disruption of cancer stem cell subpopulation of human Hep3B cells assessed as effect on CD133 levels at IC100 after 72 hrs by flow cytometric method (reference value: 0 to 0.6%). It is filed as functional.
Assay [12] relates to Hep 3B2. In words: Disruption of cancer stem cell subpopulation of human Hep3B cells assessed as effect on EpCAM levels at IC100 after 72 hrs by flow cytometric method (reference value: 0 to 0.6%). The assay is classed as functional.
The subject of assay [13] is Mahlavu. In words: Disruption of cancer stem cell subpopulation of human Mahlavu cells assessed as effect on CD90 levels at IC100 after 72 hrs by flow cytometric method (reference value: 0.6%). The assay is classed as functional.
Assay [14] concerns SNU-475. In words: Disruption of cancer stem cell subpopulation of human SNU475 cells assessed as effect on CD90 levels at IC100 after 72 hrs by flow cytometric method (reference value: 0.2%). The assay is classed as functional.
For assay [15], the target named is Vascular endothelial growth factor receptor 2 (Homo sapiens, UniProt P35968). Kind of assay: Inhibition of N-terminal GST-fused human VEGFR2 C-terminal fragment expressed in Sf9 insect cells using poly(Glu:Tyr) 4:1 as substrate. It is filed as cell-based.
Assay [16] concerns the target Focal adhesion kinase 1 (Homo sapiens) (UniProt Q05397). Kind of assay: Inhibition of FAK phosphorylation at Y397 in human bone marrow mesenchymal stem cells at 1 uM after 1 hr by immunoblot method relative to control.
Assay [17] shares this target. In words: Inhibition of FAK phosphorylation at Y397 in human bone marrow mesenchymal stem cells at 5 uM after 1 hr by immunoblot method relative to control. (In general: A western blot detects proteins with antibodies after separation by electrophoresis.)
The mark [18] stands for this setting: Homo sapiens, Huh-7, 72 h, read-out: IC50.
Where [19] appears, read: Homo sapiens, Hep3B, 72 h, read-out: IC50.
[20] abbreviates: Homo sapiens, Mahlavu, 72 h, read-out: IC50.
Where [21] appears, read: Homo sapiens, SNU-475, 72 h, read-out: IC50.

Vascular endothelial growth factor receptor 2, sequence (P35968 whole entry, the tested form may be a part): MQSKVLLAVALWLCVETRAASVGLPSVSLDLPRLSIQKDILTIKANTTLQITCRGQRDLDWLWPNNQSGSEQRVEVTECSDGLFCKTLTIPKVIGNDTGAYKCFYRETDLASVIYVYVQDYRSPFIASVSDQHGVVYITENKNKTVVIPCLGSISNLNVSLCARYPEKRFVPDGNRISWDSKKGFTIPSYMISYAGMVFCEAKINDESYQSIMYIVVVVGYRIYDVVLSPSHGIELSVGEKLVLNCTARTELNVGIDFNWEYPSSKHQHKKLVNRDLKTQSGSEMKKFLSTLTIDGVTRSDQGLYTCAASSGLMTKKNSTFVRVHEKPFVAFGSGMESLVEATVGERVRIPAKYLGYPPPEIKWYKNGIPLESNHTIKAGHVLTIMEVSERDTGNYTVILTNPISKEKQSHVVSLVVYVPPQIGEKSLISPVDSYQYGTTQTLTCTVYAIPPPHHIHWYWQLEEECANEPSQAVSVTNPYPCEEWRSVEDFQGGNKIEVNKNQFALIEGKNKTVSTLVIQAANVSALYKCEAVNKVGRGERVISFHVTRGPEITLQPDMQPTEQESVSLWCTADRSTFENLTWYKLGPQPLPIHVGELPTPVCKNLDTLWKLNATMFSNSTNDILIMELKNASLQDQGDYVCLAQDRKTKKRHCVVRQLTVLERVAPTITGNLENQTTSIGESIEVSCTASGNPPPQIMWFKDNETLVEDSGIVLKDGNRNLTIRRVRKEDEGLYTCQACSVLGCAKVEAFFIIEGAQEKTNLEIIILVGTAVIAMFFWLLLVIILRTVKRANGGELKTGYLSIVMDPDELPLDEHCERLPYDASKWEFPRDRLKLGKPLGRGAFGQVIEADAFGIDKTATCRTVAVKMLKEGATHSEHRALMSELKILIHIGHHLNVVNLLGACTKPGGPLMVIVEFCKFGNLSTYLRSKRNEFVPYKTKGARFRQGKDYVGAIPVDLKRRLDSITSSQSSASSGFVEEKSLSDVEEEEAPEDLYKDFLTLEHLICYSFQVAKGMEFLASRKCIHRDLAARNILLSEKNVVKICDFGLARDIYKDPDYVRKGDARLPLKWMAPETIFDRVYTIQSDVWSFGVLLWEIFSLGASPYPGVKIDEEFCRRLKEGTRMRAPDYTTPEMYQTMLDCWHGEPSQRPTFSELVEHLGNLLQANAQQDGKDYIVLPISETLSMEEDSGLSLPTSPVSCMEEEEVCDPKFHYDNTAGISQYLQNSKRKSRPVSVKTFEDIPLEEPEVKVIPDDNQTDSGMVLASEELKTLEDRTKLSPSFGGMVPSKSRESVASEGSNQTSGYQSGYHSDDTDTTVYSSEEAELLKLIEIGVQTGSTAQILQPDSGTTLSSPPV
Focal adhesion kinase 1 (Homo sapiens), sequence (Q05397 2-1052 limits assumed): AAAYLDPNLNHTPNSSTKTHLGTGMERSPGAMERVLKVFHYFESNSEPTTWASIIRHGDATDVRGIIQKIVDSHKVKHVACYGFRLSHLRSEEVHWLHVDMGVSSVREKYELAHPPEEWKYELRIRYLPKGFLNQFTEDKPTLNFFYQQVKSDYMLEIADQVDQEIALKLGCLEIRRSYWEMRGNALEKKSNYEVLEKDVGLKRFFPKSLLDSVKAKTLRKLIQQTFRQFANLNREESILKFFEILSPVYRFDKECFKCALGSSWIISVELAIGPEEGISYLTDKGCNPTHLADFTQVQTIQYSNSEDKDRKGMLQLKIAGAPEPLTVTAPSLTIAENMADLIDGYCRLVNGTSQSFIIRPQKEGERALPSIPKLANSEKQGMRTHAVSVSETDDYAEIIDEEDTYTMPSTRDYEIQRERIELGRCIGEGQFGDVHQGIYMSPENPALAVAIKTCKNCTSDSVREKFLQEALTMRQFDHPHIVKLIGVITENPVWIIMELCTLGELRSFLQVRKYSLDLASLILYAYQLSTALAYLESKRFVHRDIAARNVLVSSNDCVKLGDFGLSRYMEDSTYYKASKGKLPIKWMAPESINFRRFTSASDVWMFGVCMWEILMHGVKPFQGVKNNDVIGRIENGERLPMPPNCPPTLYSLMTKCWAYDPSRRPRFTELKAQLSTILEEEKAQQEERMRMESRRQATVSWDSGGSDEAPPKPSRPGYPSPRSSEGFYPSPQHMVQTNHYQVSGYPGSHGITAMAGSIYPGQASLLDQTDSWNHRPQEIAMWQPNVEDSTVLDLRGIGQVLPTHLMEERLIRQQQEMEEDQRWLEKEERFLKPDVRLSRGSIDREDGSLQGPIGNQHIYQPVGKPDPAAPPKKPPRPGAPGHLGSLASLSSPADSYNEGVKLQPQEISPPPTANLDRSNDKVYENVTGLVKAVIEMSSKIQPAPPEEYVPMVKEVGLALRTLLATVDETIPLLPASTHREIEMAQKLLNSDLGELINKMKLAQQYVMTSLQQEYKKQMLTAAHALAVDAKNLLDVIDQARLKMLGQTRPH

By IC50 is commonly meant the concentration needed to halve the response being measured. For the compound `CNC(=O)c1cc(Oc2ccc(NC(=O)Nc3ccc(Cl)c(C(F)(F)F)c3)cc2)ccn1.Cc1ccc(S(=O)(=O)O)cc1` [SORAFENIB TOSYLATE], the half-maximal inhibitory concentration (IC50) amounted to 1.6 µM in assay [1] (setting [18]), 1.5 µM in [2] (setting [19]) and 0.7 µM in assay [3] (setting [20]). The figures for the Activity in [4] and in [5] were 0.2% and 31.8%, respectively.

As to `COC1=CC(=O)C(C)=C([S@@+]([O-])c2ccc(C)cc2)C1=O`, the IC50 came out at 8 µM in assay [1] (setting [18]), 5.5 µM in assay [2] (setting [19]), 14.5 µM in [3] (setting [20]) and 10.5 µM in assay [6] (setting [21]). Moreover, the “fold change (FC)” value in [7] came out at 1.1; in assay [8], 1.1; in [9], 1.3; in [10] it was 0.5. The Activity stood at 0.5% in [4]; 35.8% in assay [5]; 0% in assay [11]; 87.8% in [12]; 0.8% in assay [13]; 0.1% in [14].

For `CCOC1=CC(=O)C(C)=C([S@@+]([O-])c2ccc(C)cc2)C1=O`, the IC50 in assay [1] (setting [18]) stood at 7 µM; in assay [2] (setting [19]), 12 µM; in assay [3] (setting [20]), 18.3 µM; in assay [6] (setting [21]), 5.5 µM. The “fold change (FC)” value in [7] came to 1.2; in assay [8], 1; in [9] it was 1.7; in assay [10], 0.5. In addition, the Activity in [4] was 0.3%; in assay [5], 40.6%; in [11], 0%; in assay [12], 80.1%; in [13], 1%; in assay [14], 0.1%.

On to `CCS(=O)(=O)c1ccc(OC)c(Nc2ncc(-c3cccc(-c4ccccn4)c3)o2)c1`, for which the half-inhibitory concentration (IC50) in assay [1] (setting [18]) was 1.5 µM; in [2] (setting [19]) it was 0.7 µM; in assay [3] (setting [20]), 1.2 µM. Also, the “fold change (FC)” value in [7] and in assay [8] was 1.7 each time. In addition, the Activity in assay [4] was 0.1%; in assay [5], 23.9%.

Consider `Cc1ccc([S@+]([O-])C2=C(Cl)C(=O)C=CC2=O)cc1`, for which the half-inhibitory concentration (IC50) result in assay [1] (huh-7), in assay [2] (hep 3b2), in assay [3] (mahlavu) and in assay [6] (snu-475) was “Not Active” in each case. In addition, the “fold change (FC)” value in assay [7] was found to be 0.7; in assay [8] it was 1; in assay [9], 0.8; in assay [10], 1.5. In addition, the Activity came out at 0.2% in assay [4]; 24.7% in assay [5]; 0% in assay [11]; 76% in assay [12]; 0.5% in assay [13]; 0.3% in [14].

As for `CCS(=O)(=O)c1ccc(OC)c(Nc2ncc(-c3cc(-c4ccccn4)cc(-c4ccccn4)c3)o2)c1`, the half-inhibitory concentration (IC50) was 2.8 µM in [1] (setting [18]), 2 µM in assay [2] (setting [19]) and 3 µM in assay [3] (setting [20]). For the same compound, the results for the “fold change (FC)” value in [7] and in assay [8] were 2.3 and 2.9, respectively. The Activity in [4] is 0.4%; in assay [5] it was 31.6%.

Take `COC1=CC(=O)C([S@@+]([O-])c2ccc(C)cc2)=CC1=O`: the 50% inhibitory concentration (IC50) in assay [1] (setting [18]) came to 10.6 µM; in assay [2] (setting [19]), 9.9 µM; in assay [3] (setting [20]), 11.3 µM; in assay [6] (setting [21]), 9 µM. The “fold change (FC)” value in assay [7] worked out at 0.9; in assay [8] it was 1.1; in assay [9] it was 2.3; in assay [10], 2. Also, the Activity in [4] is recorded as 0.3%; in assay [5] it was 29.1%; in assay [11], 0%; in [12], 84.7%; in assay [13], 1.4%; in [14], 0.4%.

Consider `Cc1ccc([S@+]([O-])C2=CC(=O)C=CC2=O)cc1`, for which the IC50 in assay [1] (setting [18]) amounted to 20 µM; in [2] (setting [19]), 17.4 µM; in assay [3] (setting [20]), 31.3 µM; in [6] (setting [21]) it was 0.3 µM. The “fold change (FC)” value is given as 0.9 in assay [7], 1.1 in assay [8], 0.3 in assay [9] and 0 in [10]. Besides, the Activity was 0.2% in assay [4]; 30.6% in [5]; 0% in assay [11]; 81.4% in assay [12]; 0.2% in assay [13]; 0% in assay [14].

For `COC1=CC(=O)C(C)=C([S+]([O-])c2ccc(C)cc2)C1=O` (racemic), the IC50 in assay [1] (setting [18]) amounted to 5.5 µM; in assay [2] (setting [19]), 4.3 µM; in [3] (setting [20]), 11.6 µM; in [6] (setting [21]), 6.1 µM. Further, the “fold change (FC)” value in assay [7] is 1.3; in [8], 1.1; in assay [9] it was 2.2; in assay [10], 2. The Activity in assay [4] was 0.8%; in assay [5], 41.3%; in assay [11], 0%; in assay [12] it was 84.9%; in assay [13], 1.3%; in [14] it was 0.4%.

Regarding `C[C@H](NC(=O)Cc1cc(F)cc(F)c1)C(=O)N[C@H](C(=O)OC(C)(C)C)c1ccccc1`, the IC50 in [1] (setting [18]) was found to be 5 µM; in assay [2] (setting [19]), 5 µM; in assay [3] (setting [20]), 5 µM; in assay [6] (setting [21]), 0.6 µM. Moreover, the “fold change (FC)” value stood at 0.8 in assay [7], 0.7 in assay [8], 0.2 in [9] and 0.5 in assay [10]. For the same compound, the Activity in assay [5] is listed as 10.2 - 26.7%; in assay [11], 0%; in [12], 68.8%; in assay [13], 0.1%; in assay [14], 0.1%.

As to `CCS(=O)(=O)c1ccc(OC)c(Nc2ncc(-c3cccc(-c4cc[nH]c4)c3)o2)c1`, the IC50 in assay [1] (setting [18]) was determined as 1.7 µM; in [2] (setting [19]) it was 2.1 µM; in assay [3] (setting [20]), 0.8 µM; in assay [15], 0.018 µM. For the same compound, the “fold change (FC)” value is 2.3 in [7] and 2.1 in assay [8]. The results for the Activity in [4] and in assay [5] were 0.9% and 32.1%, respectively.

For orientation: inhibition means how much of the control response was suppressed. A low value points to little suppression. `CO[C@H]1[C@@H](OC)C[C@H](C)[C@@H](OC)C2=CC(=O)C=C(NC(=O)/C(C)=C/C=C\[C@H](OC)[C@@H](OC(N)=O)/C(C)=C/[C@@H]1C)C2=O`: the inhibition was 61% in assay [16] and 78% in assay [17].

For `CCS(=O)(=O)c1ccc(OC)c(Nc2nc(-c3cccc(-c4ccccn4)c3)co2)c1`, the IC50 in assay [1] (setting [18]) is 0.4 µM; in [2] (setting [19]), 0.9 µM; in assay [3] (setting [20]), 1.1 µM; in [15], 564 µM. The “fold change (FC)” value in [7] is 1.7; in [8], 2.6. Further, the Activity in [4] is 0.1%; in assay [5], 23.7%.

Source of the values: ChEMBL document CHEMBL4138043, “Quinoides and VEGFR2 TKIs influence the fate of hepatocellular carcinoma and its cancer stem cells” (Medchemcomm, 2017).
